# “And” between values parts separate entries of the source, which are not always exact repeats. Identical values can stand only once.
# How the values were obtained:
# [1] = tested on: A2780 cells; assay: Cell cycle analysis (PI staining); assay type: cell-based, human; details: A2780 synchronized with thymidine; IC50 of JHOR11 or 0.1 µM doxorubicin; 5-32 h, relative to DMSO
# Description: To understand if the complex also presents a cytostatic effect, the cell cycle of A2780 cells was analyzed by DNA staining with PI, after double synchronization with thymidine at the S phase.
# The cell cycle analysis was performed by DNA staining with PI according to procedures previously described with few modifications. A2780 cells were seeded in 6-well plates in a cell density of 4 × 10^5 cells/well and the cell cycle was synchronized in the S-phase by double blocking with 2 mM thymidine. […] After 5 h, 9 h, 24 h or 32 h, cells were detached, fixed with 80% (v/v) ethanol, incubated with 50 mg/mL RNase A (NZYtech, Lisbon, Portugal) and stained with […] PI (Thermo Fisher Scientific). The fluorescence of each sample was analyzed in an Attune acoustic focusing cytometer and respective software (Thermo Fisher Scientific).
# [2] = tested on: BAX and BCL-2 protein expression in A2780 cells; details: A2780, 48 h, IC50 of JHOR11, normalized to DMSO control = 1
# Description: The ratio between BAX and BCL-2 protein expression indicates the level of susceptibility of the cell to the intrinsic apoptotic pathway [26, 27, 28]. The BAX and BCL-2 protein expression was quantified by Western blot analysis to calculate the apoptotic index of cells after 48 h incubation with IC50 of JHOR11, using the quantification of β-actin as the internal control and 0.1% (v/v) DMSO as the vehicle control (Figure 4).
# The apoptotic index was determined by quantification of BAX and BCL-2 protein expression by Western blot, as previously described [18]. Briefly, 4 × 10^6 cells were seeded on T-flasks with 25 cm^2 for 24 h and then the medium was replaced by a fresh medium supplemented with IC50 JHOR11, 0.1% (v/v) DMSO (vector control) or 0.1 µM doxorubicin (positive control). After 48 h incubation, cells were detached with a cell scraper and BAX, BCL-2 and β-actin proteins were quantified in a PVDF membrane [18]. The apoptotic ratio BAX/BCL-2 was calculated after normalization of the BAX and BCL-2 band intensity with respective β-actin band intensity and to the values of the DMSO-treated sample, measured using ImageJ2 software [41].
# [3] = tested on: A2780 cells; assay: Trypan blue exclusion method; assay type: cell-based, human; details: A2780, 48 h
# Description: A2780 cells were exposed for 48 h to the IC50 of JHOR11, and to a concentration 10 times higher and 10 times lower the IC50, and the live (transparent) and dead (blue) cells that remained adherent or in the supernatant were counted (Figure 6). A2780 cells were also incubated with 0.1% (v/v) DMSO as a vector control, and 0.1 µM doxorubicin as positive control (Supplementary Information, Figure S8).
# A2780 cells were seeded on a 24-well culture plate at a density of 37,500 cells/well. After 24 h to assure cell adherence, the medium was replaced by fresh RPMI supplemented with 0.1% (v/v) DMSO, 0.1 µM Doxorubicin or JHOR11 complex in three different concentrations: 1/10 IC50, IC50 or 10 × IC50. After 8 h, 24 h or 48 h incubation, the supernatant was removed and mixed with trypan blue (Thermo Fisher Scientific) to a final concentration 0.1% (w/v). In parallel, cells were detached from the well, centrifuged at 500× g and pellet was resuspended in 0.1% (w/v) Trypan blue. The number of viable cells and cells with compromised membrane (stained with blue) in both fractions were counted in a haemocytometer (Hirschmann, Eberstadt, Germany) and a CXX41 inverted microscope (Olympus, Tokyo, Japan).
# [4] = tested on: A2780 cells; assay: Autophagy assay (flow cytometry); assay type: cell-based, human; details: A2780, 48 h, IC50 of JHOR11
# Description: To understand if the cytotoxic effect of the complex is correlated with autophagy, A2780 cells were exposed for 48 h to the IC50 of complex JHOR11. They were then incubated with an autophagic fluorescent dye (Abcam) that becomes highly fluorescent when incorporated into pre-autophagosomes, autophagosomes or autophagolysosomes. Cells were also incubated with DMSO 0.1% (v/v) for vehicle control, and with 1.5 μM rapamycin and 3.5 μM cisplatin as positive controls.
# The fluorescence quantification and percentage of autophagic cells was performed on an Attune acoustic focusing flow cytometer and respective software (Thermo Fisher Scientific).
# [5] = tested on: chicken embryo; assay: Ex ovo chorioallantoic membrane (CAM) assay
# Description: Each chicken embryo was exposed to the IC50 of JHOR11 and 0.1% (v/v) DMSO as vector control and the number of vessels in each treated region was counted at 0 h, and after 24 h and 48 h incubation at 37 °C, as previously described [39].
# The CAM assay was performed as previously described [18, 39, 43]. Fertilized eggs with 48 h incubation were opened and stabilized for 24 h in white weighing boats. Two silicone rings were positioned in each embryo and 40 mL IC50 JHOR11 in phosphate-buffered saline (PBS) or 0.1% (v/v) DMSO in PBS, as vector control, were placed in each o-ring. The region delimited by each o-ring was photographed at 0 h, 24 h, 48 h with a digital USB microscope camera (Opti-Tekscope OT-V1). The newly formed veins were counted using ImageJ as previously described [37], and values were presented after normalization with the values obtained for control sample.
# [6] = tested on: zebrafish embryos; assay: In vivo toxicity assessment using zebrafish embryos
# Description: The toxicity of the JHOR10 and JHOR11 compounds was assayed in zebrafish embryos. There was a NOEC (No Observed Effect Concentration) in the case of JHOR11 of 80 µM (Table 2). The NOEC is the concentration used for the xenotransplantation experiments in order not to affect the normal development of the embryos and being able, in parallel, to assay the effect of the compound over the injected cells. Apart from that, the mortality assayed in the toxicity assays supports the concentration obtained in the NOEC, with a low mortality of the embryos when they are incubated with JHOR11 (Figure 13 and Figure 14).
# Wild-type zebrafish were housed in 30 L tanks within a water recirculation system under controlled physicochemical conditions: pH 7–7.5, temperature 26 ± 2 °C, conductivity 600 µS/cm and light/dark photoperiod of 14/10 h. The adult fish were fed Gemma Micro 300 (Skretting) twice a day. Fertilized eggs were collected after natural spawning and stored in Petri dishes for 48 h until being injected, or 72 h until being exposed to different concentrations of ruthenium compounds.
# At 72 h post-fertilization (hpf), the embryos were exposed to increasing concentrations of two ruthenium compounds to determine toxicological estimates: LC50 with no observed effect concentration (NOEC) and lowest observed effect concentration (LOEC). The acute toxicity assessment of the compounds was performed following the standards of the OECD Test Guideline Program.
# The embryos were individually transferred to 96-well plates containing 100 µL of each desired concentration. The plates were then placed in an incubator with a temperature of 26 °C and a photoperiod of 14 h of light and 10 h of darkness. The duration of the experiment was 96 h, and observations were made every 24 h recording the four lethal effects indicated by the OECD: embryo coagulation, absence of somite formation, absence of separation of the yolk tail and absence of heartbeat. All compounds were dissolved with dimethylsulfoxide (DMSO) with a final concentration of 1%. In each test, seven concentrations were analyzed for each compound, these being: JHOR10 (10, 20, 30, 40, 50, 55, 60 µM) and JHOR11 (50, 80, 100, 140, 200, 300, 400 µM).
# For the evaluation of toxicity, the mortality data were analyzed by probit analysis with the ToxRat software (ToxRat Solutions. 2003. ToxRat®. Software for the statistical analysis of biotests. Alsdorf, Germany).
# [7] = tested on: A2780 ovarian carcinoma cell line; assay: MTS antiproliferative assay, A2780; assay type: cell-based, human
# Description: The cytotoxic potential of the complexes was evaluated by assessing their viability using the 3-(4,5-dimethylthiazol-2-yl)-5-(3-carboxymethoxyphenyl)-2-(4-sulfophenyl)-2H tetrazolium, inner salt (MTS) colorimetric assay in three tumor cell lines—ovarian carcinoma, A2780, colorectal carcinoma, HCT116, and colorectal carcinoma resistant to doxorubicin, HCT116-Dox and in normal human primary dermal fibroblasts (Figure 1 and Figure S7).
# Normal dermal human fibroblasts, colorectal carcinoma cell line HCT116 and ovarian carcinoma cell line A2780 were acquired from ATCC (Manassas, VA, USA). […] Fibroblasts and HCT116 cells were cultured in Dulbecco’s modified Eagle medium (DMEM, Thermo Fisher Scientific) and A2780 cell line was cultured on Roswell Park Memorial institute 1640 (RPMI-1640, Thermo Fisher Scientific). Both media were supplemented with 10% (v/v) fetal bovine serum (FBS, Thermo Fisher Scientific) and a mixture of 100 U/mL penicillin and 100 mg/mL streptomycin. The supplemented media are referred to from this point on as DMEM or RPMI for simplicity. […] All experiments underwent at 37 °C, 5% (v/v) CO2 and 99% (v/v) humidity in the dark.
# Cells were seeded in a 96-well plate in a density of 7500 cells/well, and after 24 h was submitted to a concentration range between 0.1–50 µM of complexes JHOR10 and JHOR11. DMSO with a 0.1% (v/v) concentration was used as vector control and cisplatin was used as positive control in all replicates. After 48 h incubation, cellular viability was inferred with the Cell Titer 96® Aqueous One solution cell proliferation assay (Promega, Madison, WI, USA) according to the manufacturer’s instructions and procedures previously described [18, 40]. The absorbance of the produced Formazan was quantified with a Tecan microplate reader, Infinite M200 (Tecan, Mannedorf, Switzerland) and the analysis of the dose–response curves to determine the relative IC50 was performed with GraphPad Prism 8.2.1 software (GraphPad Software, La Jolla, CA, USA).
# [8] = zebrafish embryos exposed from 72 hpf, 96 h
smiles,measurement,setting,value
Cc1ccc(C(C)C)cc1.F[P-](F)(F)(F)(F)F.O=C1C(=O)c2cccnc2-c2ncccc21.[Cl][Ru+] [JHOR11],cell cycle effect,[1],slight increase in cells in G2/M phase
same,apoptotic index (BAX/BCL-2 ratio),[2],lower than 1
same,cells in the supernatant at 1/10 IC50 (Trypan blue),[3]; 1/10 IC50,exclusively live cells
same,cells in the supernatant with increasing concentration (Trypan blue),"[3]; 1/10 IC50, IC50, 10 × IC50",increased percentage of cells in the supernatant
same,percentage of cells with autophagic events,[4],48.8 ± 7.5%
same,newly formed vessels (angiogenesis),"[5]; IC50 of JHOR11, 24 h and 48 h, versus DMSO-treated regions",no anti- or pro-angiogenic effects
same,death of chicken embryos,"[5]; six embryos, 48 h, IC50 of JHOR11",did not induce the death
same,LC50,[6]; [8],225 µM
same,NOEC (No Observed Effect Concentration),[6]; [8],80 µM and 80.00 µM
same,mortality of the embryos,[6]; zebrafish embryos incubated with compound,low mortality
same,IC50,"[7]; 48 h incubation, MTS, read-out: Relative IC50, A2780",1.2 ± 0.1 µM
same,selective index in A2780,[7]; relative to fibroblasts,37.4

# Source: article PMC9656482, “In Vitro and In Vivo Biological Activity of Ruthenium 1,10-Phenanthroline-5,6-dione Arene Complexes” (International Journal of Molecular Sciences, 2022)
